Test results as given in patent US20200360520A1, “USE OF RIFAMYCIN-QUINOLIZIDONE COUPLING MOLECULE” (priority 2019, published 2020).
Converted amounts (≈) assume the structure as drawn. Where two headings read alike, the source gives them in different places. Blank lines part the entries; values can stand above or below the compound they belong to.

How the values were obtained:
Type in all cases: cell-based
[1] = tested on: Mycobacterium abscessus; test: MBC test (plating on agar, CFU count); conditions: for Minimum Bactericidal Concentration (MBC): MH Culture Medium; for MBC: Mycobacteroides abscessus, 7H9 Culture Medium, read-out: Minimum Bactericidal Concentration (MBC)
[2] = tested on: Mycobacterium massiliense; test: MIC by micro broth dilution method (resazurin microtiter assay); conditions: Mycobacteroides abscessus, MH Culture Medium, read-out: Minimum Inhibitory Concentration (MIC)
[3] = tested on: Mycobacterium intracellulare; test: as above; conditions: Mycobacterium intracellulare, MH Culture Medium, read-out: Minimum Inhibitory Concentration (MIC)
[4] = tested on: Mycobacterium kansasii; test: as above; conditions: Mycobacterium kansasii, Mycobacterium kansasii, read-out: Minimum Inhibitory Concentration (MIC)
[5] = tested on: Mycobacterium abscessus; test: as above; conditions: Mycobacteroides abscessus, read-out: Minimum Inhibitory Concentration (MIC)
[6] = tested on: Mycobacterium kansasii; test: MBC test (plating on agar, CFU count); conditions: Mycobacterium kansasii, Mycobacterium kansasii, read-out: Minimum Bactericidal Concentration (MBC)
[7] = tested on: Mycodacterium chelonei; test: MIC by micro broth dilution method (resazurin microtiter assay); conditions: MH Culture Medium; Chelonei (standard strain); read-out: Minimum Inhibitory Concentration (MIC)
[8] = tested on: Mycobacterium avium; test: MBC test (plating on agar, CFU count); conditions: Mycobacterium avium, read-out: Minimum Bactericidal Concentration (MBC)
[9] = tested on: Mycobacterium fortuitum; test: MIC by micro broth dilution method (resazurin microtiter assay); conditions: Mycolicibacterium fortuitum, MH Culture Medium, read-out: Minimum Inhibitory Concentration (MIC)
[10] = tested on: Mycobacterium avium; test: as above; conditions: read-out: Minimum Inhibitory Concentration (MIC)
[11] = clinically isolated strain Massiliense (D10)
[12] = clinically isolated strain Massiliense (D14)
[13] = clinically isolated strain Massiliense (D18)
[14] = Intracellulare (standard strain)
[15] = clinically isolated strain Intracellulare (S90)
[16] = clinically isolated strain Intracellulare (S261)
[17] = clinically isolated strain Intracellulare (S269)
[18] = clinically isolated strain Intracellulare (S290)
[19] = clinically isolated strain Intracellulare (S291)
[20] = clinically isolated strain Intracellulare (S298)
[21] = clinically isolated strain Intracellulare (S541)
[22] = clinically isolated strain Intracellulare (S623)
[23] = clinically isolated strain Intracellulare (ZPS)
[24] = clinically isolated strain intracellulare (S442)
[25] = MH Culture Medium, Kansasii (standard strain)
[26] = MH Culture Medium, clinically isolated strain Kansasii (S9)
[27] = MH Culture Medium, clinically isolated strain Kansasii (S199)
[28] = MH Culture Medium, clinically isolated strain Kansasii (S520)
[29] = MH Culture Medium, clinically isolated strain Kansasii (S609)
[30] = 7H9 Culture Medium, Mycobacterium avium Smooth
[31] = MH Culture Medium, Mycobacterium avium Smooth
[32] = clinically isolated strain Fortuitum (S103)
[33] = clinically isolated strain Fortuitum (S111)
[34] = 7H9 Broth, Mycobacterium avium Smooth
[35] = MH Broth, Mycobacterium avium Smooth
[36] = MH Culture Medium, Avium (standard strain)
[37] = MH Culture Medium, clinically isolated strain Avium (S31)
[38] = MH Culture Medium, clinically isolated strain Avium (S123)
[39] = MH Culture Medium, clinically isolated strain Avium (S559)
[40] = MH Culture Medium, clinically isolated strain Avium (S568)
[41] = MH Culture Medium, clinically isolated strain Avium (S577)
[42] = MH Culture Medium, clinically isolated strain Avium (S597)
[43] = MH Culture Medium, clinically isolated strain Avium (S602)

MIC [2, 11]: 16 µg/mL (≈ 93.5 µM) | MIC [2, 12]: 16 µg/mL (≈ 93.5 µM) | MIC [2, 13]: 8 µg/mL (≈ 46.7 µM) | MIC [3, 14]: 8 µg/mL (≈ 46.7 µM) | MIC [3, 15]: 16 µg/mL (≈ 93.5 µM) | MIC [3, 16]: 16 µg/mL (≈ 93.5 µM) | MIC [3, 17]: 16 µg/mL (≈ 93.5 µM) | MIC [3, 18]: 8 µg/mL (≈ 46.7 µM) | MIC [3, 19]: 8 µg/mL (≈ 46.7 µM) | MIC [3, 20]: 16 µg/mL (≈ 93.5 µM) | MIC [3, 21]: 16 µg/mL (≈ 93.5 µM) | MIC [3, 22]: 8 µg/mL (≈ 46.7 µM) | MIC [3, 23]: 8 µg/mL (≈ 46.7 µM) | MIC [3, 24]: 8 µg/mL (≈ 46.7 µM) | MIC ([4]; 7H9 Broth): > 64 µg/mL | MIC ([4]; MH Broth): > 64 µg/mL | MIC [4, 25]: 8 µg/mL (≈ 46.7 µM) | MIC [4, 26]: 8 µg/mL (≈ 46.7 µM) | MIC [4, 27]: 8 µg/mL (≈ 46.7 µM) | MIC [4, 28]: 8 µg/mL (≈ 46.7 µM) | MIC [4, 29]: 8 µg/mL (≈ 46.7 µM) | MIC ([5]; 7H9 Broth): > 64 µg/mL | MIC ([5]; MH Broth): > 64 µg/mL | MIC [7]: 16 µg/mL (≈ 93.5 µM) | MIC ([9]; Fortuitum (standard strain)): 16 µg/mL (≈ 93.5 µM) | MIC [9, 32]: 8 µg/mL (≈ 46.7 µM) | MIC [9, 33]: 16 µg/mL (≈ 93.5 µM) | MIC [10, 34]: > 64 µg/mL | MIC [10, 35]: > 64 µg/mL | MIC [10, 36]: 8 µg/mL (≈ 46.7 µM) | MIC [10, 37]: 16 µg/mL (≈ 93.5 µM) | MIC [10, 38]: 8 µg/mL (≈ 46.7 µM) | MIC [10, 39]: 8 µg/mL (≈ 46.7 µM) | MIC [10, 40]: 8 µg/mL (≈ 46.7 µM) | MIC [10, 41]: 8 µg/mL (≈ 46.7 µM) | MIC [10, 42]: 8 µg/mL (≈ 46.7 µM) | MIC [10, 43]: 32 µg/mL (≈ 187 µM)
SMILES: Cc1ncc([N+](=O)[O-])n1CCO [Metronidazole, metronidazole]
Minimum Bactericidal Concentration (MBC) [1]: >64 µg/mL | MBC [1]: > 64 µg/mL | MBC ([6]; 7H9 Culture Medium): > 64 µg/mL | MBC ([6]; MH Culture Medium): > 64 µg/mL | MBC [8, 30]: > 64 µg/mL | MBC [8, 31]: > 64 µg/mL

SMILES: CO[C@H]1/C=C/O[C@@]2(C)Oc3c(C)c(O)c4c(O)c(c(/C=N/N5CCN(C)CC5)c(O)c4c3C2=O)NC(=O)/C(C)=C\C=C\[C@H](C)[C@H](O)[C@@H](C)[C@@H](O)[C@@H](C)[C@H](OC(C)=O)[C@@H]1C [Rifampicin, rifampicin]
Minimum Bactericidal Concentration (MBC) [1]: >64 µg/mL | MBC [1]: > 64 µg/mL | MIC [2, 11]: > 64 µg/mL | MIC [2, 12]: > 64 µg/mL | MIC [2, 13]: > 64 µg/mL | MIC [3, 14]: 0.25 µg/mL (≈ 0.304 µM) | MIC [3, 15]: 8 µg/mL (≈ 9.72 µM) | MIC [3, 16]: 16 µg/mL (≈ 19.4 µM) | MIC [3, 17]: 4 µg/mL (≈ 4.86 µM) | MIC [3, 18]: 4 µg/mL (≈ 4.86 µM) | MIC [3, 19]: 4 µg/mL (≈ 4.86 µM) | MIC [3, 20]: 4 µg/mL (≈ 4.86 µM) | MIC [3, 21]: 16 µg/mL (≈ 19.4 µM) | MIC [3, 22]: 8 µg/mL (≈ 9.72 µM) | MIC [3, 23]: 2 µg/mL (≈ 2.43 µM) | MIC [3, 24]: 2 µg/mL (≈ 2.43 µM) | MIC ([4]; 7H9 Broth): 16 µg/mL (≈ 19.4 µM) | MIC ([4]; MH Broth): 16 µg/mL (≈ 19.4 µM) | MIC [4, 25]: 0.125 µg/mL (≈ 0.152 µM) | MIC [4, 26]: 0.125 µg/mL (≈ 0.152 µM) | MIC [4, 27]: 0.0625 µg/mL (≈ 0.0759 µM) | MIC [4, 28]: 0.0625 µg/mL (≈ 0.0759 µM) | MIC [4, 29]: 0.0625 µg/mL (≈ 0.0759 µM) | MIC ([5]; 7H9 Broth): > 64 µg/mL | MIC ([5]; MH Broth): > 64 µg/mL | MBC ([6]; 7H9 Culture Medium): 4 µg/mL (≈ 4.86 µM) | MBC ([6]; MH Culture Medium): 4 µg/mL (≈ 4.86 µM) | MIC [7]: > 64 µg/mL | MBC ([8]; 7H9 Culture Medium, Mycobacterium avium Rough): > 64 µg/mL | MBC [8, 30]: 4 µg/mL (≈ 4.86 µM) | MBC [8, 31]: 4 µg/mL (≈ 4.86 µM) | MIC ([9]; Fortuitum (standard strain)): > 64 µg/mL | MIC [9, 32]: > 64 µg/mL | MIC [9, 33]: 64 µg/mL (≈ 77.8 µM) | MIC ([10]; 7H9 Broth, Mycobacterium avium Rough): 8 µg/mL (≈ 9.72 µM) | MIC [10, 34]: 0.5 µg/mL (≈ 0.608 µM) | MIC ([10]; MH Broth, Mycobacterium avium Rough): 8 µg/mL (≈ 9.72 µM) | MIC [10, 35]: 1 µg/mL (≈ 1.22 µM) | MIC [10, 36]: 0.25 µg/mL (≈ 0.304 µM) | MIC [10, 37]: 0.0625 µg/mL (≈ 0.0759 µM) | MIC [10, 38]: 8 µg/mL (≈ 9.72 µM) | MIC [10, 39]: 0.125 µg/mL (≈ 0.152 µM) | MIC [10, 40]: 4 µg/mL (≈ 4.86 µM) | MIC [10, 41]: 0.125 µg/mL (≈ 0.152 µM) | MIC [10, 42]: 8 µg/mL (≈ 9.72 µM) | MIC [10, 43]: 2 µg/mL (≈ 2.43 µM)
